Laboratory results as given in US8916681B2, “Compound, use and method” (Medical Research Council, priority 2007, dated 2014).
“Also recorded” adds a separate entry of the source. Non-standard residues stand in square brackets, D forms with d. Residues, ends and D or L forms follow the SMILES beside them.

Columns and labels:
[1] = system: serum LH and testosterone; test: Kisspeptin-10 stimulated LH and testosterone in intact male rats, icv injections; type: in vivo, rat; conditions: for LH secretory response to kisspeptin-10 (AUC): 1 nmol icv with 100 pmol kisspeptin-10, 120-min period after co-injection; for testosterone levels vs kisspeptin-10 alone: 60 min after combined injection with kisspeptin-10
Procedure: Adult male rats (BW: 280-310 g) bred in the vivarium of the University of Córdoba were used. The animals were maintained under constant conditions of light (14 h of light, from 0700 h) and temperature (22 C), and, before cannula implantation, were kept in groups of four rats per cage with free access to pelleted food and tap water. Experimental procedures were approved by the Córdoba University Ethical Committee for animal experimentation and were conducted in accordance with the European Union normative for care and use of experimental animals.
The animals were implanted with icy cannulae under light ether anaesthesia and caged individually thereafter. To allow delivery of compounds into the lateral cerebral ventricle, the cannulae were lowered to a depth of 4 mm beneath the surface of the skull; the insert point was 1 mm posterior and 1.2 mm lateral to bregma. Functional tests were conducted at least 24-48 h after cannula implantation.
Pharmacological tests in intact males involved 5 μl injections at 60 min intervals (icy) of 1 nmol doses of the peptide 234. The last injection was accompanied by the injection of an effective (but sub-maximal) dose of 100 pmol kisspeptin-10 (Phoenix Pharmaceuticals Ltd). Animals injected with vehicle (physiological saline) served as controls. Blood samples (250 μL) were taken by jugular venipuncture at 15- and 60-min following each icy injection. In addition, blood samples were taken immediately before initiation of the experiment (time: 0-min) and at 120-min after last injection (time: 240-min). Experimental procedures and kisspeptin doses were selected on the basis of previous studies (16, 34, 48). For each time-point, 10-12 samples were taken per group.
Serum LH levels were measured in a volume of 50 μl using a double-antibody method and radioimmunoassay kits supplied by the NIH (Dr. AF Parlow, NIDDK). Rat LH-I-10 was labeled with ^125I using Iodo-Gen precoated tubes, following the instructions of the manufacturer (Pierce), and hormone concentrations were expressed using reference preparation LH-RP-3 as standard. Intra- and inter-assay coefficients of variation were below 8 and 10%, respectively. The sensitivity of the assay was 5 pg/tube. In addition, serum testosterone (T) measurements were selectively conducted in blood samples taken 60-min after co-administration of kp-10 and peptide 234 (Time: 180-min). To this end, a commercial kit from MP Biomedicals was used, following the instructions of the manufacturer. The sensitivity of the assay was 0.1 ng/tube and the intra-assay coefficient of variation was 4.5%. For each hormone, all samples were measured in the same assay. Accuracy of hormone determinations was confirmed by assessment of rat serum samples of known hormone concentrations used as external controls.
Hormonal determinations were conducted in duplicate, with a minimal total number of 10 samples per group. When appropriate, in addition to individual time-point measurements, integrated LH secretory responses were calculated as the area under the curve (AUC), following the trapezoidal rule. Hormonal data are presented as mean±SEM. Results were analyzed for statistically significant differences using Student t-test or ANOVA followed by Student-Newman-Keuls multiple range test (SigmaStat 2.0). P≦0.05 was considered significant.

GnRH release = GnRH release in the stalk-median eminence, microdialysis; type: in vivo, rhesus monkey; conditions: pubertal female rhesus monkeys; 10 nM infused over 30 min through microdialysis probe
Procedure: Four female rhesus monkeys, born and raised in the Wisconsin National Primate Research Center, were used in this study. They were housed in pairs (cages 172×86×86 cm) in rooms with 12 h of light 12 h of darkness and controlled temperature (22° C.). The animals were fed a standard diet of Harlan 20% Protein Primate Diet twice each day, supplemented with fresh fruit several times per week. Water was available ad libitum. The protocol for this study was reviewed and approved by the Animal Care and Use Committee, University of Wisconsin, and all experiments were conducted under the guidelines established by the NIH and USDA.
The effects of peptide 234 on GnRH release were examined using the microdialysis method. This method allows collection of dialysate samples for GnRH measurement while peptide 234 was infused through the semi-permeable membrane, as described previously (25)′(24). Peptide 234 dissolved in CNS perfusion fluid was infused in the stalk median eminence region through the microdialysis probe for 30 min while dialysates were continuously collected. […]
On the day of experiment the monkey was placed in the stereotaxic apparatus under ketamine (15 mg/kg b.w.) and medetomidine (0.03-0.05 mg/kg b.w.) anesthesia. […] The x, y, and z coordinates for the S-ME were calculated using ventriculographs and the final radiographs taken during cranial pedestal implantation surgery. […]

SMILES	serum LH levels ([1]; central injection to vehicle-treated animals at 120 min)	LH secretory response to kisspeptin-10 (AUC) [1]	LH secretory response to kisspeptin-10 (AUC) ([1]; listed as peptide 234)	basal LH levels ([1]; 1 nmol icv, 15, 60, 75 and 120 min after injection)	testosterone levels vs kisspeptin-10 alone [1]	testosterone levels vs kisspeptin-10 alone ([1]; listed as peptide 234)	GnRH pulses and mean GnRH levels (GnRH release)
CC(C)C[C@H](NC(=O)CNC(=O)[C@H](Cc1ccccc1)NC(=O)[C@H](CO)NC(=O)[C@H](CC(N)=O)NC(=O)[C@H](Cc1c[nH]c2ccccc12)NC(=O)[C@H](CC(N)=O)NC(=O)[C@@H](N)Cc1ccc(O)cc1)C(=O)N[C@@H](CCCNC(=N)N)C(=O)N[C@@H](Cc1ccccc1)C(N)=O [Kiss, reference compound]	evoked the expected rise	–	–	–	–	–	–
CC(=O)N[C@H](C)C(=O)N[C@@H](CC(N)=O)C(=O)N[C@@H](Cc1c[nH]c2ccccc12)C(=O)N[C@@H](CC(N)=O)C(=O)NCC(=O)N[C@@H](Cc1ccccc1)C(=O)NCC(=O)N[C@H](Cc1c[nH]c2ccccc12)C(=O)N[C@@H](CCCNC(=N)N)C(=O)N[C@@H](Cc1ccccc1)C(N)=O [Peptide 234] (Ac-[dA]NWNGFG[dW]RF-NH2)	–	inhibits; also recorded: blocked	significantly blunted	did not significantly modify	blocked	lower	suppressed
